Experimental data from patent US7384639B2, “Methods of treating or preventing an infectious disease using an immunogenic conjugate of a gram-negative bacterial autoinducer molecule” (University of Rochester, priority 1998, dated 2008).

How the values were obtained:
[1] = test system: lasI/lasZ transcriptional fusion (lasR); conditions: λI14-MG4 (pPCS1), Seed et al., 1995, cited from earlier work
lymphocytes = conditions: in vivo (so in the source); Telford et al., 1998; cited from earlier work
[2] = test system: tumor necrosis factor and interleukin-12; conditions: Telford et al., 1998; cited from earlier work
LasR = assay: microbe, parasite or virus in culture; type: cell-based; conditions: Pseudomonas aeruginosa, read-out: concentration that stimulates half-maximal activity
Protocol: Positive clones were tested in a Pseudomonas aeruginosa bioassay. PAC-JP2 (bearing the lasI/rhII double deletion) produces no PAI-1 but retains the ability to produce LasR. When PAI-1 is added exogenously, it can bind to LasR and induce the transcription of lasI. Test samples containing 40 nM PAI-1 (the concentration that stimulates half-maximal activity in this assay) were preincubated at 37° C. with anti-PAI-1 monoclonal antibody (618.4). Control samples containing 40 nm PAI-1 were preincubated at 37° C. with an equal volume of PBS. Following preincubation, the samples were tested in a Pseudomonas aeruginosa bioassay using PAO-JP2 containing a plasmid with a lasI/LacZ fusion. When the bacteria reached on OD600 of 0.8-1.0, the samples were assayed for the production of β-galactosidase, which was expressed as Miller Units of activity.

For CCCCCCCCCC(=O)CC(=O)NC1CCOC1=O [PAI-1, N-(3-oxo)-dodecanoyl-L-homoserine lactone], the “lowest PAI-1 concentration that activates the construct” value [1] is given as 10 pM, the EC50 ([1]; read-out: PAI-1 concentration for half-maximal expression) is given as 0.1 nM and the “effect on proliferation of lymphocytes” value (lymphocytes) is given as “inhibit the proliferation of lymphocytes”. For the same compound, the “effect on expression of tumor necrosis factor and interleukin-12” value [2] was “downregulates expression” and the EC50 (LasR) was 40 nM.
